Reference: patent US6355799B1, “Substituted benzene compounds, process for their preparation, and herbicidal and defoliant compositions containing them” (ISK Americas Incorporated, priority 1997, dated 2002)

Tests used:
Assay type in all cases: in vivo
[1] = tested on: redroot pigweed (Amaranthus retroflexus, AMARE); experiment: Pre-emerge test, greenhouse herbicide activity screening; details: phytotoxicity rating 0-100, 14 days after application
Outline: (§1)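 Rating: 0–100 visual injury, 14 DAA. Application: acetone, 187 l/ha, 15–1000 g ai/ha, flat-fan track sprayer with nozzle 40–45 cm above soil or canopy. Post-emerge runs used 0.25% v/v surfactant on 2–3 leaf plants.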

[2] = tested on: barnyardgrass (Echinochloa crus-galli, ECHCG); experiment: as above; details: phytotoxicity rating 0-100, 14 days after application
Excerpt: (§2) A standard greenhouse herbicide activity screening system was used to evaluate the herbicidal efficacy and crop safety of these test compounds. Seven broadleaf weed species including redroot pigweed (Amaranthus retroflexus, AMARE, velvetleaf (Abutilon theophrasti, ABUTH), sicklepod (Cassia obtusifolia, CASOB), ivyleaf morningglory (Ipomoea hederacea, IPOHE), lambsquarters (Chenopodium album, CHEAL), common ragweed (Ambrosia artemisizfolia L., AMBEL), and cocklebur (Xanthium strumarium, XANST) were used as test species. Four grass weed species including green foxtail (Setaria viridis, SETVI), barnyardgrass (Echinochloa crus-galli, ECHCG), johnsongrass (Sorghum halepense, SORHA), and large crabgrass (Digitaria sanguinalis, DIGSA) were also used. In addition, three crop species, field corn (Zea mays L., var. Dekalb 535, CORN), soybean (Glycine max L., var. Pella 86, SOY), and is upland rice (Oryza sp., var. Tebonnet, RICE) were included.
(§3) All plants were grown in 10 cm square plastic pots which were filled with a sandy loam soil mix. For pre-emerge tests, seeds were planted one day prior to application of the test compounds. For post-emerge tests, seeds were planted 8-21 days prior to the test to allow emergence and good foliage development prior to application of the test substances. At the time of the post-emerge application, plants of all species were usually at the 2-3 leaf stage of development.
(§4) All test compounds Were dissolved in acetone and applied to the test units in a volume of 187 l /ha. Test materials were applied at rates ranging from 15 g ai/ha to 1000 g ai/ha using a track sprayer equipped with a TJ8001E even flow flat fan spray nozzle. Plants were arranged on a shelf so that the top of the canopy (post-emerge) or top of the soil surface (pre-emerge) was 40-45 cm below the nozzle. Pressurized air was used to force the test solution through the nozzle as it was mechanically advanced (via electrically driven chain drive) over the top of all test plants/pots. This application simulates a typical commercial field herbicide application.
(§5) In the post-emerge test, a commercial non-ionic surfactant was also included (0.25% v/v) to enhance wetting of the leaf surfaces of target plants. Immediately after application, test units of the pre-emerge applications were watered at the soil surface to incorporate the test materials. Subsequently, these test units were bottom-watered. Post-emerge test units were always bottom-watered.
(§6) At 14 days after application of the test materials, phytotoxicity ratings were recorded. A rating scale of 0-100 was used as previously described in Research Methods in Weed Science, 2nd edition, B. Truelove, Ed., Southern Weed Science Society, Auburn University, Auburn, Ala. 1977. Briefly, “0” corresponds to no damage and “100” corresponds to complete death of all plants in the test unit. This scale was used both to determine efficacy against weed species and damage to crop species. Herbicide activity data for various compounds of this invention, which are shown by compound No. in Tables 1-8, are shown in Tables 11 and 12.

[3] = tested on: green foxtail (Setaria viridis, SETVI); experiment: as above; details: phytotoxicity rating 0-100, 14 days after application
Excerpt: as §2, §3, §4, §5, §6

[4] = tested on: ivyleaf morningglory (Ipomoea hederacea, IPOHE); experiment: as above; details: phytotoxicity rating 0-100, 14 days after application
Excerpt: as §2, §3, §4, §5, §6

[5] = tested on: lambsquarters (Chenopodium album, CHEAL); experiment: as above; details: phytotoxicity rating 0-100, 14 days after application
Excerpt: as §2, §3, §4, §5, §6

[6] = tested on: large crabgrass (Digitaria sanguinalis, DIGSA); experiment: as above; details: phytotoxicity rating 0-100, 14 days after application
Excerpt: as §2, §3, §4, §5, §6

[7] = tested on: sicklepod (Cassia obtusifolia, CASOB); experiment: as above; details: phytotoxicity rating 0-100, 14 days after application
Excerpt: as §2, §3, §4, §5, §6

[8] = tested on: velvetleaf (Abutilon theophrasti, ABUTH); experiment: as above; details: phytotoxicity rating 0-100, 14 days after application
Excerpt: as §2, §3, §4, §5, §6

[9] = tested on: field corn (Zea mays L., var. Dekalb 535, CORN); experiment: Pre-emerge test, crop safety; details: crop damage rating 0-100, 14 days after application
Outline: (§7)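 Herbicidal damage is scored 0 (none) to 100 (complete plant death) two weeks after a simulated field spray. Rates span 15–1000 g ai/ha, delivered in acetone at 187 l/ha. For post-emergence treatments, plants have 2–3 leaves and the spray carries 0.25% v/v non-ionic surfactant.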

[10] = tested on: upland rice (Oryza sp., var. Tebonnet, RICE); experiment: Pre-emerge test, crop safety; details: crop damage rating 0-100, 14 days after application
Outline: as §7

[11] = tested on: barnyardgrass (Echinochloa crus-galli, ECHCG); experiment: Post-emerge test, greenhouse herbicide activity screening; details: post-emerge, 14 days after application, rating scale 0-100
Excerpt: as §2, §3, §4, §5, §6

[12] = tested on: green foxtail (Setaria viridis, SETVI); experiment: as above; details: post-emerge, 14 days after application, rating scale 0-100
Excerpt: as §2, §3, §4, §5, §6

[13] = tested on: ivyleaf morningglory (Ipomoea hederacea, IPOHE); experiment: as above; details: post-emerge, 14 days after application, rating scale 0-100
Excerpt: as §2, §3, §4, §5, §6

[14] = tested on: lambsquarters (Chenopodium album, CHEAL); experiment: as above; details: post-emerge, 14 days after application, rating scale 0-100
Excerpt: as §2, §3, §4, §5, §6

[15] = tested on: large crabgrass (Digitaria sanguinalis, DIGSA); experiment: as above; details: post-emerge, 14 days after application, rating scale 0-100
Excerpt: as §2, §3, §4, §5, §6

[16] = tested on: redroot pigweed (Amaranthus retroflexus, AMARE); experiment: as above; details: post-emerge, 14 days after application
Excerpt: as §2, §3, §4, §5, §6

[17] = tested on: sicklepod (Cassia obtusifolia, CASOB); experiment: as above; details: post-emerge, 14 days after application, rating scale 0-100
Excerpt: as §2, §3, §4, §5, §6

[18] = tested on: velvetleaf (Abutilon theophrasti, ABUTH); experiment: as above; details: post-emerge, 14 days after application, rating scale 0-100
Excerpt: as §2, §3, §4, §5, §6

[19] = tested on: field corn (Zea mays L., var. Dekalb 535, CORN); experiment: Post-emerge test, crop safety; details: post-emerge, 14 days after application, rating scale 0-100
Outline: as §1

[20] = tested on: upland rice (Oryza sp., var. Tebonnet, RICE); experiment: Post-emerge test, crop safety; details: post-emerge, 14 days after application, rating scale 0-100
Outline: as §1

[21] = 63 g ai/ha, rating scale 0-100 (0 no damage, 100 complete death)
[22] = 250 g ai/ha, rating scale 0-100

| Structure (SMILES) | Pre-emerge Herbicidal Activity AMARE ([1]; 63 g ai/ha) | Pre-emerge Herbicidal Activity AMARE ([1]; 250 g ai/ha) | Pre-emerge Herbicidal Activity ECHCG ([2]; 63 g ai/ha) | Pre-emerge Herbicidal Activity ECHCG ([2]; 250 g ai/ha) | Pre-emerge Herbicidal Activity SETVI ([3]; 63 g ai/ha) | Pre-emerge Herbicidal Activity SETVI ([3]; 250 g ai/ha) | Pre-emerge Herbicidal Activity IPOHE ([4]; 63 g ai/ha) | Pre-emerge Herbicidal Activity IPOHE ([4]; 250 g ai/ha) | Pre-emerge Herbicidal Activity CHEAL ([5]; 63 g ai/ha) | Pre-emerge Herbicidal Activity CHEAL ([5]; 250 g ai/ha) | Pre-emerge Herbicidal Activity DIGSA ([6]; 63 g ai/ha) | Pre-emerge Herbicidal Activity DIGSA ([6]; 250 g ai/ha) | Pre-emerge Herbicidal Activity CASOB ([7]; 63 g ai/ha) | Pre-emerge Herbicidal Activity CASOB ([7]; 250 g ai/ha) | Pre-emerge Herbicidal Activity ABUTH ([8]; 63 g ai/ha) | Pre-emerge Herbicidal Activity ABUTH ([8]; 250 g ai/ha) | Pre-emerge Herbicidal Activity CORN ([9]; 63 g ai/ha) | Pre-emerge Herbicidal Activity CORN ([9]; 250 g ai/ha) | Pre-emerge Herbicidal Activity RICE ([10]; 63 g ai/ha) | Pre-emerge Herbicidal Activity RICE ([10]; 250 g ai/ha) | further results |
| --- | --- | --- | --- | --- | --- | --- | --- | --- | --- | --- | --- | --- | --- | --- | --- | --- | --- | --- | --- | --- | --- |
| COc1c(Cl)cc(F)c(-n2c(=O)cc(C(F)(F)F)n(C)c2=O)c1NC(=O)OCc1cccc(F)c1 [4-44] | 100 | 100 | 80 | 95 | 100 | 100 | 100 | 100 | 100 | 100 | 100 | 100 | 100 | 100 | 100 | 100 | 70 | 95 | 70 | 65 | phytotoxicity rating ECHCG ([11]; 63 g ai/ha): 70; phytotoxicity rating ECHCG ([11]; 250 g ai/ha): 90; phytotoxicity rating SETVI ([12]; 63 g ai/ha): 95; phytotoxicity rating SETVI ([12]; 250 g ai/ha): 90; phytotoxicity rating IPOHE ([13]; 63 g ai/ha): 100; phytotoxicity rating IPOHE ([13]; 250 g ai/ha): 100; phytotoxicity rating CHEAL ([14]; 63 g ai/ha): 100; phytotoxicity rating CHEAL ([14]; 250 g ai/ha): 100; phytotoxicity rating DIGSA ([15]; 63 g ai/ha): 70; phytotoxicity rating DIGSA ([15]; 250 g ai/ha): 95; phytotoxicity rating AMARE [16, 21]: 100; phytotoxicity rating AMARE [16, 22]: 100; phytotoxicity rating CASOB ([17]; 63 g ai/ha): 100; phytotoxicity rating CASOB ([17]; 250 g ai/ha): 100; phytotoxicity rating ABUTH ([18]; 63 g ai/ha): 100; phytotoxicity rating ABUTH ([18]; 250 g ai/ha): 100; phytotoxicity rating CORN (crop damage) ([19]; 63 g ai/ha): 90; phytotoxicity rating CORN (crop damage) ([19]; 250 g ai/ha): 100; phytotoxicity rating RICE (crop damage) ([20]; 63 g ai/ha): 70; phytotoxicity rating RICE (crop damage) ([20]; 250 g ai/ha): 80 |
| COc1ccc(COC(=O)Nc2c(OC)c(Cl)cc(F)c2-n2c(=O)cc(C(F)(F)F)n(C)c2=O)cc1 [4-40] | 100 | 100 | 60 | 85 | 100 | 100 | 30 | 90 | 100 | 100 | 100 | 100 | 60 | 90 | 100 | 100 | 0 | 75 | 30 | 70 | phytotoxicity rating ECHCG ([11]; 63 g ai/ha): 50; phytotoxicity rating ECHCG ([11]; 250 g ai/ha): 90; phytotoxicity rating SETVI ([12]; 63 g ai/ha): 80; phytotoxicity rating SETVI ([12]; 250 g ai/ha): 90; phytotoxicity rating IPOHE ([13]; 63 g ai/ha): 100; phytotoxicity rating IPOHE ([13]; 250 g ai/ha): 100; phytotoxicity rating CHEAL ([14]; 63 g ai/ha): 100; phytotoxicity rating CHEAL ([14]; 250 g ai/ha): 100; phytotoxicity rating DIGSA ([15]; 63 g ai/ha): 40; phytotoxicity rating DIGSA ([15]; 250 g ai/ha): 90; phytotoxicity rating AMARE [16, 21]: 100; phytotoxicity rating AMARE [16, 22]: 100; phytotoxicity rating CASOB ([17]; 63 g ai/ha): 100; phytotoxicity rating CASOB ([17]; 250 g ai/ha): 100; phytotoxicity rating ABUTH ([18]; 63 g ai/ha): 100; phytotoxicity rating ABUTH ([18]; 250 g ai/ha): 100; phytotoxicity rating CORN (crop damage) ([19]; 63 g ai/ha): 30; phytotoxicity rating CORN (crop damage) ([19]; 250 g ai/ha): 70; phytotoxicity rating RICE (crop damage) ([20]; 63 g ai/ha): 40; phytotoxicity rating RICE (crop damage) ([20]; 250 g ai/ha): 60 |
